Source: patent publication US12365696B2, “Small-molecule focal adhesion kinase (FAK) inhibitors” (DANA-FARBER CANCER INSTITUTE, INC., priority 2019, dated 2025)
Like-named read-outs stand apart in the source and are kept apart here.

Legend:
Assay in all cases: KINOMEscan
Type in all cases: binding
[1] = molecular target: (Homo sapiens (Human), UniProt P57078); settings: read-out: Percent Control
PIK3CG = PIK3CG (Homo sapiens (Human), UniProt P48736); settings: 10000 nM, read-out: Percent Control
CSK = CSK (Homo sapiens (Human), UniProt P41240); settings: 10000 nM, read-out: Percent Control
FLT3(D835H) = FLT3(D835H) (Homo sapiens (Human), UniProt P36888, D835H); settings: 10000 nM, read-out: Percent Control
PKMYT1 = PKMYT1 (Homo sapiens (Human), UniProt Q99640); settings: PKMYT1, 10000 nM; read-out: Percent Control
SRC = SRC (Homo sapiens (Human), UniProt P12931); settings: 10000 nM, read-out: Percent Control
GRK7 = GRK7 (Homo sapiens (Human), UniProt Q8WTQ7); settings: GRK7, 10000 nM; read-out: Percent Control
LATS1 = LATS1 (Homo sapiens (Human), UniProt O95835); settings: LATS1, 10000 nM; read-out: Percent Control
Chain of LATS1 (O95835 whole entry): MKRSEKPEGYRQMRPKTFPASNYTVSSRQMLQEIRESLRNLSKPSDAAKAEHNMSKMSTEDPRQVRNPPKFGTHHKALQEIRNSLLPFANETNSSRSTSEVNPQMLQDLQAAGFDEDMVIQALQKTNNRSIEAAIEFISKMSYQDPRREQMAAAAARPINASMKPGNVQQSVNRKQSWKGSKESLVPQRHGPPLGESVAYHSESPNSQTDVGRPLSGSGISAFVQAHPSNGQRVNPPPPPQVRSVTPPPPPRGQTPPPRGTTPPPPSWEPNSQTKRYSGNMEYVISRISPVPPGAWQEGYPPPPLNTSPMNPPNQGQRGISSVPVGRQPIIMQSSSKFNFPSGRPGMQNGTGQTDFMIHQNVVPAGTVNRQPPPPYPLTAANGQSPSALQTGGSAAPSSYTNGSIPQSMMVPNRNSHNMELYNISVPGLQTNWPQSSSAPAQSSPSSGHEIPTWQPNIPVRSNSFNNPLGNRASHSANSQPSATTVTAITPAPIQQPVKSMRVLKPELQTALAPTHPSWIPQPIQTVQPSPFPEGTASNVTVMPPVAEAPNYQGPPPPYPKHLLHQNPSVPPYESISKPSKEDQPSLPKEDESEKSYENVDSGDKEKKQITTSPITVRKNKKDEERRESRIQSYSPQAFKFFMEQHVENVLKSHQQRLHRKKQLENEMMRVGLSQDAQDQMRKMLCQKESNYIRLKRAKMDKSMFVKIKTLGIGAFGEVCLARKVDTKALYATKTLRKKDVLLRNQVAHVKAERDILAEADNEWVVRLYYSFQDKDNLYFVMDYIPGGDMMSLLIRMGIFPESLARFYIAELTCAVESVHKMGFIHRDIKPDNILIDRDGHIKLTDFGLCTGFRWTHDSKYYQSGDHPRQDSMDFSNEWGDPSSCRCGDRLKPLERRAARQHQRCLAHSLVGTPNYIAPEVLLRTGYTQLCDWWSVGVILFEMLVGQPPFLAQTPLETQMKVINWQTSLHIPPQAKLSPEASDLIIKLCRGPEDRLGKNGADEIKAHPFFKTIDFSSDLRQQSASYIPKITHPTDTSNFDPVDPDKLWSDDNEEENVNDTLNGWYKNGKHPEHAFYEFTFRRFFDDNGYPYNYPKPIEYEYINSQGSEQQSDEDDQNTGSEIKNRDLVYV

EPHA6 = EPHA6 (Homo sapiens (Human), UniProt Q9UF33); settings: EPHA6, 10000 nM; read-out: Percent Control
CHEK1 = CHEK1 (Homo sapiens (Human), UniProt O14757); settings: CHEK1, 10000 nM; read-out: Percent Control
FLT4 = FLT4 (Homo sapiens (Human), UniProt P35916); settings: FLT4, 10000 nM; read-out: Percent Control
CAMK2D = CAMK2D (Homo sapiens (Human), UniProt Q13557); settings: 10000 nM, read-out: Percent Control
Chain of CAMK2D (Q13557 whole entry): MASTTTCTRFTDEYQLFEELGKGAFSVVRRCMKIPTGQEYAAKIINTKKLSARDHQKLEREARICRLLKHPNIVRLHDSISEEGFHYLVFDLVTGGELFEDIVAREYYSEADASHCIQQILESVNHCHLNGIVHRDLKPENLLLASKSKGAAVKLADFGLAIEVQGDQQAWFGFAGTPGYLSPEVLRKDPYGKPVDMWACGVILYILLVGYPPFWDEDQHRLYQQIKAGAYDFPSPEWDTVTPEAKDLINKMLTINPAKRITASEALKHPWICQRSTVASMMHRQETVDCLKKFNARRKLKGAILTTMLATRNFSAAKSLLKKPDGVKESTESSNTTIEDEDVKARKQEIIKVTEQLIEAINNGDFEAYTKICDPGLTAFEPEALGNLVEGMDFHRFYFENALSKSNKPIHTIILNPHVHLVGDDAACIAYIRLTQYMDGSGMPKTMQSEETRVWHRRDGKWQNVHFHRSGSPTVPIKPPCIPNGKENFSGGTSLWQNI

TLK2 = TLK2 (Homo sapiens (Human), UniProt Q86UE8); settings: TLK2, 10000 nM; read-out: Percent Control
MAP3K4 = MAP3K4 (Homo sapiens (Human), UniProt Q9Y6R4); settings: MAP3K4, 10000 nM; read-out: Percent Control
PHKG2 = PHKG2 (Homo sapiens (Human), UniProt P15735); settings: PHKG2, 10000 nM; read-out: Percent Control
Chain of PHKG2 (P15735 whole entry): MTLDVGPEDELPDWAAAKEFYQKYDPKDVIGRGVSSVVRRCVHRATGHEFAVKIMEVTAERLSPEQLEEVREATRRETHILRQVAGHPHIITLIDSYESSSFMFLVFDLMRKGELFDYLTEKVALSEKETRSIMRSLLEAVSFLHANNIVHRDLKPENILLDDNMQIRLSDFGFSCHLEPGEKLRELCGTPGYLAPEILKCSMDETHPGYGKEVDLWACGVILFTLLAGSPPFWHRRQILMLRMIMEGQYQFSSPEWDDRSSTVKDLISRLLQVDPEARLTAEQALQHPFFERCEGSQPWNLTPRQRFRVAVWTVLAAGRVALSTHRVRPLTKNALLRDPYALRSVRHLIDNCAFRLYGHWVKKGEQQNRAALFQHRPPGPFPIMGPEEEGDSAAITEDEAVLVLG

EPHA2 = EPHA2 (Homo sapiens (Human), UniProt P29317); settings: EPHA2, 10000 nM; read-out: Percent Control
Chain of EPHA2 (P29317 24-976): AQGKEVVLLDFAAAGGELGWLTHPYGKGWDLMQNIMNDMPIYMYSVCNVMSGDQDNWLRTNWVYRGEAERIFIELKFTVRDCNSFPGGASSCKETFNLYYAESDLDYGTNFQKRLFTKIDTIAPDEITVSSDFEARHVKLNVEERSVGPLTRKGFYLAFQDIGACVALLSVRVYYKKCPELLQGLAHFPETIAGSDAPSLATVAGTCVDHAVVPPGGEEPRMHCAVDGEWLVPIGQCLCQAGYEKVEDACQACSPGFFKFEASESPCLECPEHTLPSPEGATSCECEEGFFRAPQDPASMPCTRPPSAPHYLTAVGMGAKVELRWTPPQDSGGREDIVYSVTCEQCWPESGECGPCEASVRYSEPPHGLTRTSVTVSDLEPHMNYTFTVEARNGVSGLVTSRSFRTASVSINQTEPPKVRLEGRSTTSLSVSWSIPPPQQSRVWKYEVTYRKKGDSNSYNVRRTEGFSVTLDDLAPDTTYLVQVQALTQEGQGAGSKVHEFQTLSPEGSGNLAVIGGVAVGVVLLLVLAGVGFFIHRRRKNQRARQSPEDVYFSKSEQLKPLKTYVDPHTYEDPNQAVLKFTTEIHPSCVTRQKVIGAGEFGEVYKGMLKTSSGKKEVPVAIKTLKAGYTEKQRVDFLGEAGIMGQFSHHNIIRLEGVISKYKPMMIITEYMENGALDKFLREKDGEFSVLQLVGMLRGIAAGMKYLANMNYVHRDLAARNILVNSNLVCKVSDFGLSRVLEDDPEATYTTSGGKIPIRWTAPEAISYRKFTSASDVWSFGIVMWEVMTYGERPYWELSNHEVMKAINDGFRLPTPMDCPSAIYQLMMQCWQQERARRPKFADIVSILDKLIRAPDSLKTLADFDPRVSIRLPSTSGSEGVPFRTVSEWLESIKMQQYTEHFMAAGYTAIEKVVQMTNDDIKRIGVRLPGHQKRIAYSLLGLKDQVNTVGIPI

ERK1 = ERK1 (Homo sapiens (Human), UniProt P27361); settings: ERK1, 10000 nM; read-out: Percent Control
PRKD2 = PRKD2 (Homo sapiens (Human), UniProt Q9BZL6); settings: PRKD2, 10000 nM; read-out: Percent Control
MARK1 = MARK1 (Homo sapiens (Human), UniProt Q9P0L2); settings: MARK1, 10000 nM; read-out: Percent Control
Chain of MARK1 (Q9P0L2 whole entry): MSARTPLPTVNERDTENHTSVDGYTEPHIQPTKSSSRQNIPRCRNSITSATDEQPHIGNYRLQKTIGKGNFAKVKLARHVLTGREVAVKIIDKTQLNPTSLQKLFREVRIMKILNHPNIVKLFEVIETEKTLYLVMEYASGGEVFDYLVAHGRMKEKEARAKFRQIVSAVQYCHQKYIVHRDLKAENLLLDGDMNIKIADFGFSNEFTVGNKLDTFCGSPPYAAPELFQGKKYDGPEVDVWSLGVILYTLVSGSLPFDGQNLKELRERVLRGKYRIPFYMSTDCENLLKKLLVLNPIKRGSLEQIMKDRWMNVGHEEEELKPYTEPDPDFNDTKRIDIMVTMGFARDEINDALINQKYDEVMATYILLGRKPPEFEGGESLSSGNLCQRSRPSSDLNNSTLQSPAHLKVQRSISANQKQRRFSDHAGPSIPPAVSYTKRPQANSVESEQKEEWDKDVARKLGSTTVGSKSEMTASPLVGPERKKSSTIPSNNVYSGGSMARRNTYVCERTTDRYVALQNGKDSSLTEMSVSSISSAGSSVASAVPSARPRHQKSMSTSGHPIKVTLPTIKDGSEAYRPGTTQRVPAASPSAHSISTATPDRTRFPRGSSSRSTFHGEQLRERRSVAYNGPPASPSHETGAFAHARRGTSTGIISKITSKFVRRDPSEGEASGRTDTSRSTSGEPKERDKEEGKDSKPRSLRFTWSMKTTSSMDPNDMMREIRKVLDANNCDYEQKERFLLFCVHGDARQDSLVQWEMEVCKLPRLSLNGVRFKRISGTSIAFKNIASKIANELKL

WNK4 = WNK4 (Homo sapiens (Human), UniProt Q96J92); settings: WNK4, 10000 nM; read-out: Percent Control
NEK7 = NEK7 (Homo sapiens (Human), UniProt Q8TDX7); settings: NEK7, 10000 nM; read-out: Percent Control
SRPK1 = SRPK1 (Homo sapiens (Human), UniProt Q96SB4); settings: SRPK1, 10000 nM; read-out: Percent Control
ERN1 = ERN1 (Homo sapiens (Human), UniProt O75460); settings: ERN1, 10000 nM; read-out: Percent Control
CDK9 = CDK9 (Homo sapiens (Human), UniProt P50750); settings: CDK9, 10000 nM; read-out: Percent Control
Chain of CDK9 (P50750 whole entry): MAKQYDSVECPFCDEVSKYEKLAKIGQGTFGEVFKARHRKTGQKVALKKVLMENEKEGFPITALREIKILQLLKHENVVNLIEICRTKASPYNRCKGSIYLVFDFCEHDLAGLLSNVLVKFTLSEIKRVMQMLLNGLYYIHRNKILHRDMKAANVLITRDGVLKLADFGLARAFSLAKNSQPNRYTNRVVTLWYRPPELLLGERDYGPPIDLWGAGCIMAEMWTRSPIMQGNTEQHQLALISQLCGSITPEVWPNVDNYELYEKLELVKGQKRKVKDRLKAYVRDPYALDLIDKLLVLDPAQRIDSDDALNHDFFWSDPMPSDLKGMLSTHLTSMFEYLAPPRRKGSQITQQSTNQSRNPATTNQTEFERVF

MST4 = MST4 (Homo sapiens (Human), UniProt Q9P289); settings: MST4, 10000 nM; read-out: Percent Control
[2] = molecular target: ABL1(E255K)-phosphorylated (Homo sapiens (Human), UniProt P00519, E255K); settings: 10000 nM, read-out: Percent Control
CAMK2A = CAMK2A (Homo sapiens (Human), UniProt Q9UQM7); settings: 10000 nM, read-out: Percent Control
RIOK2 = RIOK2 (Homo sapiens (Human), UniProt Q9BVS4); settings: RIOK2, 10000 nM; read-out: Percent Control
NEK2 = NEK2 (Homo sapiens (Human), UniProt P51955); settings: NEK2, 10000 nM; read-out: Percent Control
NEK1 = NEK1 (Homo sapiens (Human), UniProt Q96PY6); settings: NEK1, 10000 nM; read-out: Percent Control
CAMK2B = CAMK2B (Homo sapiens (Human), UniProt Q13554); settings: 10000 nM, read-out: Percent Control
DRAK2 = DRAK2 (Homo sapiens (Human), UniProt O94768); settings: DRAK2, 10000 nM; read-out: Percent Control
EGFR(E746-A750del) = EGFR(E746-A750del) (Homo sapiens (Human), UniProt P00533, DEL746-750); settings: 10000 nM, read-out: Percent Control

Chain of (Homo sapiens (Human), UniProt P57078) (P57078 whole entry): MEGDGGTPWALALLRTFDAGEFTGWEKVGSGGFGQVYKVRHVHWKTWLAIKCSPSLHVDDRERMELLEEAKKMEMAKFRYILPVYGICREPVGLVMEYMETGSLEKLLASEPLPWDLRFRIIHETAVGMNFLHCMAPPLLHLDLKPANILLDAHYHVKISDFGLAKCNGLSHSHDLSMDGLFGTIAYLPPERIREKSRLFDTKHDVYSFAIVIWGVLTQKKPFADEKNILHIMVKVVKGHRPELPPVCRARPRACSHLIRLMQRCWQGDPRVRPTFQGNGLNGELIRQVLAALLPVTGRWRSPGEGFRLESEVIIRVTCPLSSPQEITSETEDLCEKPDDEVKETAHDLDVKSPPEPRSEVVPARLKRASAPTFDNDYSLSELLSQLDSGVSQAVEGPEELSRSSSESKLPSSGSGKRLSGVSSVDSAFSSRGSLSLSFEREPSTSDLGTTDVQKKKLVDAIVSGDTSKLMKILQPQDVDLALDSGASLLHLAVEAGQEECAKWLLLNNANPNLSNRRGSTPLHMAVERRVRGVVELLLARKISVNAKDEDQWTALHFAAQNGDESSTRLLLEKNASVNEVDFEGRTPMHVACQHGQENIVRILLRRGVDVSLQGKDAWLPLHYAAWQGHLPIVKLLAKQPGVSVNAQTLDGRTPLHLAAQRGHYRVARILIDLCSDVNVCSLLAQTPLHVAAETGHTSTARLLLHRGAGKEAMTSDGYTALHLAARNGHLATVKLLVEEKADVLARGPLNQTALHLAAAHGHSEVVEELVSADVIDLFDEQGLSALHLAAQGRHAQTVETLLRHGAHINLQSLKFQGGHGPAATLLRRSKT

COc1cc(N2CCC(N3CCN(C)CC3)CC2)ccc1Nc1ncc2c(n1)N(C)c1sc(C)nc1C(=O)N2 [Compound 3, 6-((2-methoxy-4-(4-(4-methylpiperazin-1-yl)piperidin-1-yl)phenyl)amino)-2,4-dimethyl-4,9-dihydro-10H-pyrimido[5,4-b]thiazolo[5,4-e][1,4]diazepin-10-one]
remaining binding at 10 µM ([1]; PIPK4, 10000 nM): 100%
remaining binding at 10 µM (PIK3CG): 93%
remaining binding at 10 µM (CSK): 85%
remaining binding at 10 µM (FLT3(D835H)): 67%
remaining binding at 10 µM (PKMYT1): 90%
remaining binding at 10 µM (SRC): 63%
remaining binding at 10 µM (GRK7): 97%
remaining binding at 10 µM (LATS1): 77%
remaining binding at 10 µM (EPHA6): 83%
remaining binding at 10 µM (CHEK1): 79%
remaining binding at 10 µM (FLT4): 92%
remaining binding at 10 µM (CAMK2D): 82%
remaining binding at 10 µM (TLK2): 100%
remaining binding at 10 µM (MAP3K4): 73%
remaining binding at 10 µM (PHKG2): 69%
remaining binding at 10 µM (EPHA2): 91%
remaining binding at 10 µM (ERK1): 88%
remaining binding at 10 µM (PRKD2): 72%
remaining binding at 10 µM (MARK1): 87%
remaining binding at 10 µM (WNK4): 100%
remaining binding at 10 µM (NEK7): 63%
remaining binding at 10 µM (SRPK1): 100%
remaining binding at 10 µM (ERN1): 93%
remaining binding at 10 µM (CDK9): 74%
remaining binding at 10 µM (MST4): 100%
remaining binding at 10 µM [2]: 17%
remaining binding at 10 µM (CAMK2A): 76%
remaining binding at 10 µM (RIOK2): 82%
remaining binding at 10 µM (NEK2): 84%
remaining binding at 10 µM (NEK1): 78%
remaining binding at 10 µM (CAMK2B): 81%
remaining binding at 10 µM (DRAK2): 100%
remaining binding at 10 µM (EGFR(E746-A750del)): 67%

COc1cc(N2CCC(N3CCN(C)CC3)CC2)ccc1Nc1ncc2c(n1)N(C)c1sc(C)nc1C(=O)N2C [Compound 5, 6-((2-methoxy-4-(4-(4-methylpiperazin-1-yl)piperidin-1-yl)phenyl)amino)-2,4,9-trimethyl-4,9-dihydro-10H-pyrimido[5,4-b]thiazolo[5,4-e][1,4]diazepin-10-one]
remaining binding at 10 µM ([1]; RIPK4, 10000 nM): 100%
remaining binding at 10 µM (PIK3CG): 88%
remaining binding at 10 µM (CSK): 100%
remaining binding at 10 µM (FLT3(D835H)): 100%
remaining binding at 10 µM (PKMYT1): 95%
remaining binding at 10 µM (SRC): 100%
remaining binding at 10 µM (GRK7): 100%
remaining binding at 10 µM (LATS1): 50%
remaining binding at 10 µM (EPHA6): 86%
remaining binding at 10 µM (CHEK1): 59%
remaining binding at 10 µM (FLT4): 100%
remaining binding at 10 µM (CAMK2D): 92%
remaining binding at 10 µM (TLK2): 100%
remaining binding at 10 µM (MAP3K4): 100%
remaining binding at 10 µM (PHKG2): 38%
remaining binding at 10 µM (EPHA2): 91%
remaining binding at 10 µM (ERK1): 92%
remaining binding at 10 µM (PRKD2): 46%
remaining binding at 10 µM (MARK1): 89%
remaining binding at 10 µM (WNK4): 100%
remaining binding at 10 µM (NEK7): 100%
remaining binding at 10 µM (SRPK1): 100%
remaining binding at 10 µM (ERN1): 88%
remaining binding at 10 µM (CDK9): 98%
remaining binding at 10 µM (MST4): 100%
remaining binding at 10 µM [2]: 100%
remaining binding at 10 µM (CAMK2A): 100%
remaining binding at 10 µM (RIOK2): 100%
remaining binding at 10 µM (NEK2): 100%
remaining binding at 10 µM (NEK1): 97%
remaining binding at 10 µM (CAMK2B): 93%
remaining binding at 10 µM (DRAK2): 100%
remaining binding at 10 µM (EGFR(E746-A750del)): 79%
